# Measurements published in US20110064694A1, “ANTI-HEPATITIS C ACTIVITY OF MESO-TETRAKIS-PORPHYRIN ANALOGUES” (YALE UNIVERSITY, priority 2009, published 2011).
# Like-named read-outs stand apart in the source and are kept apart here.
# What was measured:
# [1] = system: mitochondrial DNA content of CEM cells; assay: Mitochondrial DNA toxicity, slot blot of CEM cell lysates; assay type: cell-based; conditions: read-out: Mitochondrial DNA Toxicity IC50 CEM
# Protocol: Quantitation of mitochondrial DNA content was performed as previously published (18). Briefly, CEM cell lysates were spotted onto Hybond paper using the Miliford II slot blot apparatus (Schleicher & Schuell). MTDNA was detected with mtDNA-specific probe and then reprobed with Alu probe for internal control. The autoradiographic bands were quantified on scanning densitometer (Molecular Dynamics).
# HIV-1 IIIB = assay: Anti-HIV activity in MT-2 cells, MTT quantitation of viral CPE; assay type: cell-based; conditions: read-out: Antiviral Activity EC50 HIV-1 IIIB
# Protocol: (§1) Determination of antiviral activities. Ff-luciferase reporter activity was used to monitor the replication of HCV replicons in Huhluc/neo-ET cells free from G418. Replicon cells were seeded at the density of 5×10^3 cells per well in 96-well plates. The following day, replicon cells were incubated in duplicates with DMSO or serially diluted tetraphenylporphyrin (TPP) analogues at 37″C. 72 hrs after co-incubation, cells were lysed with ice-cold passive lysis reagent after PBS wash, and the luciferase activity was measured with the luciferase assay kit (Promega) and Tecan FARCyte luminometer (GE Healthcare) following the manufacturers' descriptions. The relative light units (RLU) were adjusted as percentage readings of the compound-free controls and the 50% effective concentration (EC50) was determined from dose-effect curve by nonlinear regression analysis using Origin 6.1 (OriginLab Software). TPP analogues were also screened in vitro against HIV-I IIIB and HBV as previously described (26,41). Briefly 1×10^3 MT-2 cells per well were exposed in triplets to 0.1TC1D50/cell (50% of the tissue culture infectious dose) of HIV-1 IIIB and cultured in the presence of compounds. The EC50 values were estimated by MTT-based colorimetric quantitation of viral CPE after 5 days. Anti-HBV activities were evaluated in 2.2.15 cells by means of Southern DNA hybridization.
# [2] = Cytotoxicity in CEM cells; conditions: human
# HBV = assay: Anti-HBV activity in 2.2.15 cells by Southern DNA hybridization; assay type: cell-based; conditions: read-out: Antiviral Activity EC50 HBV
# Protocol: as §1
# [3] = system: HCV genotype 1b (Con 1 isolate) subgenomic replicon; assay: microbe, parasite or virus in culture; assay type: cell-based, Hepatitis C virus; conditions: for improvement in anti-HCV EC50 over compound 2: relative to lead compound 2
# Protocol: (§2) Cells. HCV genotype 1b (Con 1 isolate) subgenomic replicon cell line with luciferase reporter (Huh-luc/neo-ET) was kindly provided by Ralf Bartenschlager from the University of Heidelberg (37). Huh-luc/neo-ET cells were cultured in Dulbecco's modified Eagle medium (DMEM , supplemented with 10% fetal bovine serum (FBS), 1 mM nonessential amino acids, and 250 μg/ml of G418 (Invitrogen). Genotype 2a (JFH-I isolate) subgenomic replicon cells YSGR-JFH were cultured in DMEM containing 10 To fetal calf serum, 1 mM nonessential amino acids and 400 μg/ml G418 (31). An additional genotype 1b (Conl) replicon cell line (4291BBix) was cultured in similar media but with 3 μg/ml blasticidin (22).
# as §1
# [4] = system: HCV genotype 2a (JFH-1) replicon; assay: HCV RNA quantification by qRT-PCR in YSGR-JFH cells; assay type: cell-based, Hepatitis C virus; conditions: Hepatitis C virus, 72 h, read-out: antiviral EC50 against YSGR-JFH replicon cells
# Protocol: as §2
# Activity of compound 6 against genotype 2a (JFH-I) replicons. In parallel to Huh-luc/neo-ET cells, 1×10^5 YSGR-JFH cells per well were incubated with DMSO control, compound 6, or recombinant human IFNα-2a (Pestka Biomedical Laboratories) in 6-well plates. Cells were harvested after 72 hrs of co-incubation and HCV RNAs were quantitated by qRT-PCR and normalized as described above.
# cytochrome c = cytochrome c (Equus caballus, UniProt P00004); conditions: read-out: Kd, binding to cyt c; cited from earlier work
# [5] = Cytotoxicity in Huh-7 cells (methylene blue or CellTiter-Glo); assay type: cell-based; conditions: human; Huh-7 cells, 3 days
# Protocol: (§3) Determination of cytotoxicity and mitochondrial DNA toxicity. Exponentially growing Huh-7 cells were seeded at a density of 1×10^4 cells per well in a 24-well plate and incubated with TPP analogues for 3 days. Cells were fixed and stained with 0.5% methylene blue in 50% ethanol followed by extensive washing. After the plates were air dried, cells were solubilized in 1% sarkosyl and cell growth was determined from the extent of absorption by spectrophotometric measurements at 595 nm (Biotek Instruments). For compounds whose dark color interfered with 595-nm reading, cytotoxicity was measured by the CellTiter-Glo luminesecent cell viability assay following manufacturer's description (Promega). Cytotoxicity in MT-2 cells was determined from colorimetric quantitation of uninfected MT-2 cells after 5 days of coincubation.
# [6] = system: HCV genotype 1b (Con1) replicon; assay: Effect of serum concentration on anti-HCV activity, luciferase assay in Huh-luc/neo-ET cells; assay type: cell-based, Hepatitis C virus; conditions: for Fold Change in EC50 5% FBS: EC50 at 5% FBS as one fold; for EC50: 72 hrs; for Fold Change in EC50 10% FBS / Fold Change in EC50 20% FBS / Fold Change in EC50 40% FBS: relative to EC50 at 5% FBS
# Protocol: Cells were harvested after 72 hrs for luciferase activity assays.
# Huh-luc/neo-ET cells were incubated with compound 1, 4 or 6 for 72 hrs and the anti-HCV activity was evaluated by measuring the reduction of reporter luciferase activities.
# [7] = Cytotoxicity in uninfected MT-2 cells; assay type: cell-based; conditions: human; uninfected MT-2 cells, 5 days
# Protocol: as §3
# CEM cells [8] = assay: Cytotoxicity in CEM cells; conditions: read-out: Cytotoxicity CC50 CEM
# Huh-7 cells = assay: Cytotoxicity in Huh-7 cells (methylene blue or CellTiter-Glo); assay type: cell-based
# Protocol: as §3
# MT-2 cells = assay: Cytotoxicity in uninfected MT-2 cells; assay type: cell-based
# Protocol: as §3
# CEM cells [9] = system: CEM cells
# [10] = Huh-luc/neo-ET, 72 hrs, luciferase, read-out: Antiviral Activity EC50 HCV
# Chain of cytochrome c (P00004 2-105 limits assumed): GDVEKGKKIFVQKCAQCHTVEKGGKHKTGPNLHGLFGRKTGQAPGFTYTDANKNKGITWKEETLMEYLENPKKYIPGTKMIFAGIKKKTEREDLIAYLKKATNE
compound,measurement,setting,value
"O=C(O)c1ccc(-c2c3nc(c(-c4ccc(C(=O)O)cc4)c4ccc([nH]4)c(-c4ccc(C(=O)O)cc4)c4nc(c(-c5ccc(C(=O)O)cc5)c5ccc2[nH]5)C=C4)C=C3)cc1 [Compound 1, Meso-Tetra(4-carboxyphenyl)porphine]",IC50,"[1]; Homo sapiens, CCRF-CEM",> 50 µM
same,EC50,"HIV-1 IIIB; Human immunodeficiency virus 1, IIIB, MT2, 120 h",> 25 µM
same,CC50,[2],34 µM
same,EC50,HBV; Hepatitis B virus,> 10 µM
same,EC50,"[3]; Hepatitis C virus, Huh-luc/neo-ET, 72 hrs, luciferase, read-out: Antiviral Activity EC50 HCV",0.243 ± 0.0359 µM
same,improvement in anti-HCV EC50 over compound 2,[3],Over 7 fold
same,EC50,[4],1.9 µM
same,Kd,cytochrome c,0.95 ± 0.25 µM
same,CC50 at 3 days,[5],> 50 µM
same,Fold Change in EC50 5% FBS,[6],1.00
same,EC50,"[6]; Hepatitis C virus, Huh-luc/neo-ET, read-out: EC50 10% FBS, 10% FBS",0.243 ± 0.036 µM
same,EC50,"[6]; Hepatitis C virus, Huh-luc/neo-ET, read-out: EC50 20% FBS, 20% FBS",0.513 ± 0.069 µM
same,EC50,"[6]; Hepatitis C virus, Huh-luc/neo-ET, 5% FBS, read-out: EC50 5% FBS",0.124 ± 0.008 µM
same,EC50,"[6]; Hepatitis C virus, Huh-luc/neo-ET, 40% FBS, read-out: EC50 40% FBS",0.948 ± 0.089 µM
same,EC50,"[6]; Hepatitis C virus, Huh-luc/neo-ET, extrapolation of the plot of EC50 vs serum amount, read-out: EC50 0% FBS (Theoretical)",0.0482 µM
same,Fold Change in EC50 10% FBS,[6],1.95 ± 0.16
same,Fold Change in EC50 20% FBS,[6],4.16 ± 0.82
same,Fold Change in EC50 40% FBS,[6],7.62 ± 0.46
same,CC50 at 5 days,[7],> 25 µM
O=C(O)CNC(=O)c1ccc(-c2c3nc(c(-c4ccc(C(=O)NCC(=O)O)cc4)c4ccc([nH]4)c(-c4ccc(C(=O)NCC(=O)O)cc4)c4nc(c(-c5ccc(C(=O)NCC(=O)O)cc5)c5ccc2[nH]5)C=C4)C=C3)cc1 [Compound 2],IC50,[1]; CEM cells,15 ± 3.7 µM
same,EC50,"HIV-1 IIIB; MT-2 cells, 5 days",> 25 µM
same,CC50,CEM cells [8],27 ± 15.1 µM
same,EC50,HBV,> 10 µM
same,EC50,[3]; [10],1.8 ± 0.7 µM
same,CC50,"Huh-7 cells; Huh-7 cells, 3 days, read-out: Cytotoxicity CC50 Huh-7",> 50 µM
same,CC50,"MT-2 cells; uninfected MT-2 cells, 5 days, read-out: Cytotoxicity CC50 MT-2",3.2 ± 1.13 µM
O=C(O)c1cc(C(=O)O)cc(-c2c3nc(c(-c4cc(C(=O)O)cc(C(=O)O)c4)c4ccc([nH]4)c(-c4cc(C(=O)O)cc(C(=O)O)c4)c4nc(c(-c5cc(C(=O)O)cc(C(=O)O)c5)c5ccc2[nH]5)C=C4)C=C3)c1 [Compound 3],IC50,[1]; CEM cells,25 µM
same,EC50,"HIV-1 IIIB; MT-2 cells, 5 days",> 100 µM
same,CC50,CEM cells [9],> 50 µM
same,EC50,HBV,7 µM
same,EC50,[3]; [10],13.6 ± 1.1 µM
same,CC50,Huh-7 cells,> 50 µM
same,CC50,MT-2 cells,22 µM
"O=C(O)c1ccc(-c2ccc(-c3c4nc(c(-c5ccc(-c6ccc(C(=O)O)cc6)cc5)c5ccc([nH]5)c(-c5ccc(-c6ccc(C(=O)O)cc6)cc5)c5nc(c(-c6ccc(-c7ccc(C(=O)O)cc7)cc6)c6ccc3[nH]6)C=C5)C=C4)cc2)cc1 [Compound 4, Tetracarboxybiphenylporphyrin]",IC50,[1]; CEM cells,6 µM
same,EC50,"HIV-1 IIIB; MT-2 cells, 5 days",> 25 µM
same,CC50,CEM cells [9],10 µM
same,EC50,HBV,> 10 µM
same,EC50,[3]; [10],0.877 ± 0.0289 µM
same,Kd,cytochrome c,17 ± 0.84 µM
same,CC50,Huh-7 cells,32.2 ± 4.14 µM
same,EC50,"[6]; 5% FBS, read-out: EC50 5% FBS",0.633 ± 0.176 µM
same,EC50,"[6]; 40% FBS, read-out: EC50 40% FBS",1.48 ± 0.015 µM
same,Fold Change in EC50 5% FBS,[6],1.00
same,EC50,"[6]; extrapolation of the plot of EC50 vs serum amount, read-out: EC50 0% FBS (Theoretical)",0.38 µM
same,EC50,"[6]; read-out: EC50 10% FBS, 10% FBS",0.877 ± 0.029 µM
same,EC50,"[6]; read-out: EC50 20% FBS, 20% FBS",1.21 ± 0.056 µM
same,Fold Change in EC50 10% FBS,[6],1.46 ± 0.42
same,Fold Change in EC50 20% FBS,[6],2.01 ± 0.52
same,Fold Change in EC50 40% FBS,[6],2.48 ± 0.74
same,CC50,MT-2 cells,> 25 µM
O=C(O)CNC(=O)c1ccc(-c2ccc(-c3c4nc(c(-c5ccc(-c6ccc(C(=O)NCC(=O)O)cc6)cc5)c5ccc([nH]5)c(-c5ccc(-c6ccc(C(=O)NCC(=O)O)cc6)cc5)c5nc(c(-c6ccc(-c7ccc(C(=O)NCC(=O)O)cc7)cc6)c6ccc3[nH]6)C=C5)C=C4)cc2)cc1 [Compound 5],IC50,[1]; CEM cells,> 50 µM
same,EC50,"HIV-1 IIIB; MT-2 cells, 5 days",1.5 ± 0.436 µM
same,CC50,CEM cells [9],> 50 µM
same,EC50,HBV,> 20 µM
same,EC50,[3]; [10],0.148 ± 0.006 µM
same,improvement in anti-HCV EC50 over compound 2,[3],12 fold
same,CC50,Huh-7 cells,> 50 µM
same,CC50,MT-2 cells,13 ± 4.36 µM
O=C(O)CNC(=O)c1cc(C(=O)NCC(=O)O)cc(-c2ccc(-c3c4nc(c(-c5ccc(-c6cc(C(=O)NCC(=O)O)cc(C(=O)NCC(=O)O)c6)cc5)c5ccc([nH]5)c(-c5ccc(-c6cc(C(=O)NCC(=O)O)cc(C(=O)NCC(=O)O)c6)cc5)c5nc(c(-c6ccc(-c7cc(C(=O)NCC(=O)O)cc(C(=O)NCC(=O)O)c7)cc6)c6ccc3[nH]6)C=C5)C=C4)cc2)c1 [Compound 7],IC50,[1]; CEM cells,12.5 µM
same,EC50,"HIV-1 IIIB; MT-2 cells, 5 days",1.05 ± 0.071 µM
same,CC50,CEM cells [9],> 50 µM
same,EC50,HBV,> 10 µM
same,EC50,[3]; [10],> 12.5 µM
same,CC50,Huh-7 cells,12.5 µM
same,CC50,MT-2 cells,15 ± 4.24 µM
O=C(O)c1cccc(-c2ccc(-c3c4nc(c(-c5ccc(-c6cccc(C(=O)O)c6)cc5)c5ccc([nH]5)c(-c5ccc(-c6cccc(C(=O)O)c6)cc5)c5nc(c(-c6ccc(-c7cccc(C(=O)O)c7)cc6)c6ccc3[nH]6)C=C5)C=C4)cc2)c1 [Compound 9],IC50,[1]; CEM cells,22 µM
same,EC50,"HIV-1 IIIB; MT-2 cells, 5 days",> 25 µM
same,CC50,CEM cells [9],50 µM
same,EC50,HBV,8 µM
same,EC50,[3]; [10],0.764 ± 0.06 µM
same,CC50,Huh-7 cells,13 ± 0.7 µM
same,CC50,MT-2 cells,> 25 µM
"C[N+](C)(C)c1ccc(-c2c3nc(c(-c4ccc([N+](C)(C)C)cc4)c4ccc([nH]4)c(-c4ccc([N+](C)(C)C)cc4)c4nc(c(-c5ccc([N+](C)(C)C)cc5)c5ccc2[nH]5)C=C4)C=C3)cc1 [TTMAPP, 5,10,I5,20-Tetrakis (4(trimethylammonio)-phenyl)-21H,23H-porphine, reference compound]",EC50,"[3]; HCV replicons in vitro, read-out: anti-HCV EC50",3.58 µM
